In data set [1] the target is T1, Lysine-specific demethylase 5B (Homo sapiens, UniProt Q9UGL1). Description: Inhibition of KDM5B (unknown origin) at 10 nM incubated for 2 hrs by Alphascreen assay. (Alpha assays give light when donor and acceptor beads are brought close together.)
Data set [2] can be described thus: Apparent permeability of the compound at 100 uM incubated for 4 hrs by PAMPA assay. The class given is ADME. For orientation: The PAMPA barrier holds no transporters, so it reflects passive diffusion.
The target in data set [3] is T1, Lysine-specific demethylase 5B. Description: Inhibition of KDM5B (unknown origin) incubated for 2 hrs by Alphascreen assay.
Data set [4] in a line: Lipophilicity, log D of the compound in PBS at 100 uM at pH 7.4 incubated for 20 mins by UPLC analysis. The class given is physicochemical.
For data set [5], the target named is Lysine-specific demethylase 5A (Homo sapiens, UniProt P29375). Description: Inhibition of KDM5A (unknown origin) incubated for 2 hrs by Alphascreen assay.
Chain of Lysine-specific demethylase 5A (P29375 whole entry): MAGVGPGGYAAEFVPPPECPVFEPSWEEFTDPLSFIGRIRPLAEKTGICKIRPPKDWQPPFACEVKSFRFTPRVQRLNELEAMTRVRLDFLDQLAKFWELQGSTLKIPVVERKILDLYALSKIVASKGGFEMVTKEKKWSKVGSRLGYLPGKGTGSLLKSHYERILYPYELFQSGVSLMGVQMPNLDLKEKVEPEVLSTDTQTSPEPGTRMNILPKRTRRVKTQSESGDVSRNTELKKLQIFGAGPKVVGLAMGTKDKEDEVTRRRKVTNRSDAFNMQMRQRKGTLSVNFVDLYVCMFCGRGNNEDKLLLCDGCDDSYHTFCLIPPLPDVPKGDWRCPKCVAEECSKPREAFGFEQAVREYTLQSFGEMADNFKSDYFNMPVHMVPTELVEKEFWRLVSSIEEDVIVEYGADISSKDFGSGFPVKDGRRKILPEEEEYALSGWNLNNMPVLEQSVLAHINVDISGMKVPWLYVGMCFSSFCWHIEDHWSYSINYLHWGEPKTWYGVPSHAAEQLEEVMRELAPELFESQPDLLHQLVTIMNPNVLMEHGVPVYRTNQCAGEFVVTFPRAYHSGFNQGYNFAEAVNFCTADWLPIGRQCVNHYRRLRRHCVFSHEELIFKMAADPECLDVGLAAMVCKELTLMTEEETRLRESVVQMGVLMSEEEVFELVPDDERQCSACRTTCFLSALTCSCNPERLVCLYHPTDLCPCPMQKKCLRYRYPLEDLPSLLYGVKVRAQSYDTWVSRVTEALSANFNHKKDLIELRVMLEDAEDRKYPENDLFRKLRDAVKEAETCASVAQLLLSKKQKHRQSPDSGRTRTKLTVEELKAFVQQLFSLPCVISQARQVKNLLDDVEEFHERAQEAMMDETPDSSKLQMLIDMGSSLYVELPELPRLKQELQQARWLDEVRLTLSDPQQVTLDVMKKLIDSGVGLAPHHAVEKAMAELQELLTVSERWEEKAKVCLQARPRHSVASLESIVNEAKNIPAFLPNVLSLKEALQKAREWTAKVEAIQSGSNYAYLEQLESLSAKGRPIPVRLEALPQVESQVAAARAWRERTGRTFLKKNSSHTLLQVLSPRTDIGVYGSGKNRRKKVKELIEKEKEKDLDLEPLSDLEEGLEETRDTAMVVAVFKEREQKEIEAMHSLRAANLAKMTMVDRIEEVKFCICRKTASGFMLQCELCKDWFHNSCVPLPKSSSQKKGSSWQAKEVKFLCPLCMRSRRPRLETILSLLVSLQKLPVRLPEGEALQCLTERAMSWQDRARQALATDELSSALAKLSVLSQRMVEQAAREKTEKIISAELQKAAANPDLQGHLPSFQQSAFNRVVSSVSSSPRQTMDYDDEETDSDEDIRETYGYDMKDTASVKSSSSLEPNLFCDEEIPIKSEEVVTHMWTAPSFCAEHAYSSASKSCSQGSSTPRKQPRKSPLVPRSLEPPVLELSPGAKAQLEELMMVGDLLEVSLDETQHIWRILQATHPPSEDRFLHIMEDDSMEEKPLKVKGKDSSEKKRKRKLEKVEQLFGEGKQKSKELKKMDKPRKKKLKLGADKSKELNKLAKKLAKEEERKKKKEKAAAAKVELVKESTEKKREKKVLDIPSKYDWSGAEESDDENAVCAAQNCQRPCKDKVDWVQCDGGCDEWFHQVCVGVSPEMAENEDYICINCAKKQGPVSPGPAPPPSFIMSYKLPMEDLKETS
Data set [6] concerns the target Lysine-specific demethylase 5C (Homo sapiens, UniProt P41229). Description: Inhibition of KDM5C (unknown origin) incubated for 2 hrs by Alphascreen assay.
Data set [7] addresses T2, Lysine-specific demethylase 3A (Homo sapiens, UniProt Q9Y4C1).
T2 sequence (Q9Y4C1 whole entry): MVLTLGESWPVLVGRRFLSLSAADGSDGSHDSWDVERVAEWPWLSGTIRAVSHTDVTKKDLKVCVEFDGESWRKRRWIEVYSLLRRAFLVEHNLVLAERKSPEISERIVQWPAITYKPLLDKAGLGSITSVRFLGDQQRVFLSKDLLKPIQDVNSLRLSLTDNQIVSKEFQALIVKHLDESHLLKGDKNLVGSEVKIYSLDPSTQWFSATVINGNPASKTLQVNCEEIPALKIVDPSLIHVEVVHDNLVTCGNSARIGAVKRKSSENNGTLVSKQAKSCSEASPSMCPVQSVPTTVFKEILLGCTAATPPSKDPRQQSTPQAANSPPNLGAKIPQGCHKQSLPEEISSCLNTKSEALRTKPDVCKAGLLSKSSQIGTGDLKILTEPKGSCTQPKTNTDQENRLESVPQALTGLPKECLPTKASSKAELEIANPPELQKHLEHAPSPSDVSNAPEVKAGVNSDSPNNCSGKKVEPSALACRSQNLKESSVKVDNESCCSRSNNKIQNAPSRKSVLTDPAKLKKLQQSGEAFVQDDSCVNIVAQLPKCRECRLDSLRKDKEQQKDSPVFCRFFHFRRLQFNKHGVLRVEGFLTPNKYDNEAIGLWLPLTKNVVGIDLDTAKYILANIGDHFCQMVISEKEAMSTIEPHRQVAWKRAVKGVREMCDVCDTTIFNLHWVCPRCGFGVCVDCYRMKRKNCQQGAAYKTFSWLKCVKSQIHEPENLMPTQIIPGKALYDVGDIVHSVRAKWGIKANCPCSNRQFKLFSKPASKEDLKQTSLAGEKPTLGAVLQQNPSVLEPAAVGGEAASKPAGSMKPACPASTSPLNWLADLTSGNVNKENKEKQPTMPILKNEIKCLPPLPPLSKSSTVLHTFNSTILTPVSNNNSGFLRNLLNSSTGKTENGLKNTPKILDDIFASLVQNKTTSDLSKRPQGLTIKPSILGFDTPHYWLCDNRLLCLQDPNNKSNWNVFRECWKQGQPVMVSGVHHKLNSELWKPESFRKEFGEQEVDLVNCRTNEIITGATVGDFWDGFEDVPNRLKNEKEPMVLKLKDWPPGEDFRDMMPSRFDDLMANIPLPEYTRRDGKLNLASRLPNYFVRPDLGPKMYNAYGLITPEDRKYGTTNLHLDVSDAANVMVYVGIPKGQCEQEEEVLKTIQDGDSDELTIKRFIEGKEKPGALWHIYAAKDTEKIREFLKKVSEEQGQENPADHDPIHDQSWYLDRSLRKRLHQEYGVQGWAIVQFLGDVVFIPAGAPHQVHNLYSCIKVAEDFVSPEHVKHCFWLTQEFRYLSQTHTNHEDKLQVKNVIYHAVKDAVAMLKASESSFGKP
Description: Inhibition of KDM3A (unknown origin) incubated for 2 hrs by Alphascreen assay.

The target in data set [8] is T3, Lysine-specific demethylase 4A (Homo sapiens, UniProt O75164).
T3 sequence (O75164 whole entry): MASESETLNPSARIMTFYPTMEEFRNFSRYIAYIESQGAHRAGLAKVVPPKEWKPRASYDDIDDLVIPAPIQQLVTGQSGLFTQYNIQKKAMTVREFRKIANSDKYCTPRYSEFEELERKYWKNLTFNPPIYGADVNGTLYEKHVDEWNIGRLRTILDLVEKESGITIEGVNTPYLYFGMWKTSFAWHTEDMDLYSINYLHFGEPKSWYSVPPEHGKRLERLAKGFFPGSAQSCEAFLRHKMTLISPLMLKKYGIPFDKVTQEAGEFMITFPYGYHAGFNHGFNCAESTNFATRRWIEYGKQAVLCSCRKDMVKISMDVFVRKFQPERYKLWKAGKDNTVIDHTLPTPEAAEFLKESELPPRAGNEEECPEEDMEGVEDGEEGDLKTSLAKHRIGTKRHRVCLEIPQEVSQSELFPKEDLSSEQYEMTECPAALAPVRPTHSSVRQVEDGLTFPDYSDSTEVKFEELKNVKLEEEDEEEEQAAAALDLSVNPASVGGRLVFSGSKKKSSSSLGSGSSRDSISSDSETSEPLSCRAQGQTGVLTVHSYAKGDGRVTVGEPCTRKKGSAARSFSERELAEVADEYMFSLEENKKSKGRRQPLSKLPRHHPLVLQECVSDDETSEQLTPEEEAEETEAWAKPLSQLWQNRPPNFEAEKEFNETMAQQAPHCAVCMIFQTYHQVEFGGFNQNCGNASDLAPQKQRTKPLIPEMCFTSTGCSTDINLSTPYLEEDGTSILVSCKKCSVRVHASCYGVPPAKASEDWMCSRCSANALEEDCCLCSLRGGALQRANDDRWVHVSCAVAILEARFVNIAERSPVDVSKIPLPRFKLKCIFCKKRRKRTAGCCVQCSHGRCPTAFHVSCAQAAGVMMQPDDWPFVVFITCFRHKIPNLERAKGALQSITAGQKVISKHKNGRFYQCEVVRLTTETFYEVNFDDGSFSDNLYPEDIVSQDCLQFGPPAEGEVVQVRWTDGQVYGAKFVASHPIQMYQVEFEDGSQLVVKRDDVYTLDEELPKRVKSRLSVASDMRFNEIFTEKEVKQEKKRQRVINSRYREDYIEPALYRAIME
As to the kind of experiment: Inhibition of KDM4A (unknown origin) incubated for 2 hrs by Alphascreen assay.

Data set [9] addresses Lysine-specific demethylase 6B (Homo sapiens, UniProt O15054). Description: Inhibition of KDM6B (unknown origin) incubated for 2 hrs by Alphascreen assay.
Data set [10] has as its system A549. Description: Inhibition of KDM5 in human A549 cells assessed as increase in H3K4me3 level at 400 nM by Western blot analysis. It is filed as cell-based. The note with it: time 1-18 hrs, TDE = time-dependent effect. In general terms: Immunoblotting shows a protein as a band on a membrane.
Data set [11] relates to A549. As to the kind of experiment: Inhibition of KDM5 in human A549 cells assessed as increase in H3K4me3 level at 400 nM incubated for 18 hrs by Western blot analysis. It is filed as cell-based.
Data set [12] concerns A549. As to the kind of experiment: Inhibition of KDM5 in human A549 cells assessed as increase in H3K4me3 level incubated for 18 hrs by Western blot analysis. The class given is cell-based. The conditions noted are these: dose 100-400 nM.
For data set [13], the system named is A549. Description: Inhibition of KDM4 in human A549 cells assessed as increase in H3K9me3 level at 100 to 400 nM incubated for 18 hrs by Western blot analysis. It is filed as cell-based. The conditions noted are these: dose 100-400 nM.
The test system of data set [14] is A549. Description: Inhibition of KDM6 in human A549 cells assessed as increase in H3K27me3 level at 100 to 400 nM incubated for 18 hrs by Western blot analysis. The note with it: dose 100-400 nM. It is filed as cell-based.

The source made the active and inactive calls. The rule behind the calls is not given here.

T1 sequence (Q9UGL1 whole entry, the tested form may be a part): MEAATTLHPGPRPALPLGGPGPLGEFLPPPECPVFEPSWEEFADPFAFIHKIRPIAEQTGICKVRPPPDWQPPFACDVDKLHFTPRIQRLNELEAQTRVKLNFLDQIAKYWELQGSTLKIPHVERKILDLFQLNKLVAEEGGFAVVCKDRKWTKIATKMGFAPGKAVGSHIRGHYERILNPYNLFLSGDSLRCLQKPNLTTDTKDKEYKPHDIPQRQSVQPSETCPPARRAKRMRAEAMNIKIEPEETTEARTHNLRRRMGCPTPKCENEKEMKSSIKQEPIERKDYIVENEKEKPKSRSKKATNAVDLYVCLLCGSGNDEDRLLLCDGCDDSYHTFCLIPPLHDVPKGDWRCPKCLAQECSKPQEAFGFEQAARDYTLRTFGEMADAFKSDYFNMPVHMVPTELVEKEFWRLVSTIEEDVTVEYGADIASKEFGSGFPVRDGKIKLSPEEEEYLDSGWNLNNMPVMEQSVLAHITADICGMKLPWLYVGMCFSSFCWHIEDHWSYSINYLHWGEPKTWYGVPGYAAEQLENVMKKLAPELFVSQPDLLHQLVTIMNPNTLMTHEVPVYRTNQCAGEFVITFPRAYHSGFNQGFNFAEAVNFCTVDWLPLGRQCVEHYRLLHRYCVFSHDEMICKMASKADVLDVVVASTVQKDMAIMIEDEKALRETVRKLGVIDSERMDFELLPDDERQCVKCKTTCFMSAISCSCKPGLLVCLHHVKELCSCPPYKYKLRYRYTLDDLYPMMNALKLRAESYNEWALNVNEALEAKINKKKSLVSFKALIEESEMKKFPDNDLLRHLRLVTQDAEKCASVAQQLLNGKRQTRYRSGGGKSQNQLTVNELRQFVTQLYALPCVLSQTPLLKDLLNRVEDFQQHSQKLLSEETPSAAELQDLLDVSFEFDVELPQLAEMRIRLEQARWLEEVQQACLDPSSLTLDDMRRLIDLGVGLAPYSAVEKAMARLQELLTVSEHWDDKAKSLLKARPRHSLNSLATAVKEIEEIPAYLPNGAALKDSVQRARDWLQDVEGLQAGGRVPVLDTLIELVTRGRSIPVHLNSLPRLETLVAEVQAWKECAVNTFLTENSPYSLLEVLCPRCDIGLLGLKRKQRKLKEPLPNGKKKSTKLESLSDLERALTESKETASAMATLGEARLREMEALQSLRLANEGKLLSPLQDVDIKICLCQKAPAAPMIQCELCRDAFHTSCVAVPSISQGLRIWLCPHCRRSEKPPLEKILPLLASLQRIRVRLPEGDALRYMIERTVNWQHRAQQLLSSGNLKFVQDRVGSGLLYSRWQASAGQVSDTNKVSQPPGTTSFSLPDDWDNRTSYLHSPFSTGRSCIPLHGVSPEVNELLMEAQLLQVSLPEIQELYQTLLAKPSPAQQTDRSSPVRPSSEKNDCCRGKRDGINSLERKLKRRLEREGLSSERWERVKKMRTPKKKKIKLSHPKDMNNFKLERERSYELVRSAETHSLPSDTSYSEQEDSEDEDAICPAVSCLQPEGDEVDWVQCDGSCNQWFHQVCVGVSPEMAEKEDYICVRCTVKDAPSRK
Chain of Lysine-specific demethylase 5C (P41229 whole entry): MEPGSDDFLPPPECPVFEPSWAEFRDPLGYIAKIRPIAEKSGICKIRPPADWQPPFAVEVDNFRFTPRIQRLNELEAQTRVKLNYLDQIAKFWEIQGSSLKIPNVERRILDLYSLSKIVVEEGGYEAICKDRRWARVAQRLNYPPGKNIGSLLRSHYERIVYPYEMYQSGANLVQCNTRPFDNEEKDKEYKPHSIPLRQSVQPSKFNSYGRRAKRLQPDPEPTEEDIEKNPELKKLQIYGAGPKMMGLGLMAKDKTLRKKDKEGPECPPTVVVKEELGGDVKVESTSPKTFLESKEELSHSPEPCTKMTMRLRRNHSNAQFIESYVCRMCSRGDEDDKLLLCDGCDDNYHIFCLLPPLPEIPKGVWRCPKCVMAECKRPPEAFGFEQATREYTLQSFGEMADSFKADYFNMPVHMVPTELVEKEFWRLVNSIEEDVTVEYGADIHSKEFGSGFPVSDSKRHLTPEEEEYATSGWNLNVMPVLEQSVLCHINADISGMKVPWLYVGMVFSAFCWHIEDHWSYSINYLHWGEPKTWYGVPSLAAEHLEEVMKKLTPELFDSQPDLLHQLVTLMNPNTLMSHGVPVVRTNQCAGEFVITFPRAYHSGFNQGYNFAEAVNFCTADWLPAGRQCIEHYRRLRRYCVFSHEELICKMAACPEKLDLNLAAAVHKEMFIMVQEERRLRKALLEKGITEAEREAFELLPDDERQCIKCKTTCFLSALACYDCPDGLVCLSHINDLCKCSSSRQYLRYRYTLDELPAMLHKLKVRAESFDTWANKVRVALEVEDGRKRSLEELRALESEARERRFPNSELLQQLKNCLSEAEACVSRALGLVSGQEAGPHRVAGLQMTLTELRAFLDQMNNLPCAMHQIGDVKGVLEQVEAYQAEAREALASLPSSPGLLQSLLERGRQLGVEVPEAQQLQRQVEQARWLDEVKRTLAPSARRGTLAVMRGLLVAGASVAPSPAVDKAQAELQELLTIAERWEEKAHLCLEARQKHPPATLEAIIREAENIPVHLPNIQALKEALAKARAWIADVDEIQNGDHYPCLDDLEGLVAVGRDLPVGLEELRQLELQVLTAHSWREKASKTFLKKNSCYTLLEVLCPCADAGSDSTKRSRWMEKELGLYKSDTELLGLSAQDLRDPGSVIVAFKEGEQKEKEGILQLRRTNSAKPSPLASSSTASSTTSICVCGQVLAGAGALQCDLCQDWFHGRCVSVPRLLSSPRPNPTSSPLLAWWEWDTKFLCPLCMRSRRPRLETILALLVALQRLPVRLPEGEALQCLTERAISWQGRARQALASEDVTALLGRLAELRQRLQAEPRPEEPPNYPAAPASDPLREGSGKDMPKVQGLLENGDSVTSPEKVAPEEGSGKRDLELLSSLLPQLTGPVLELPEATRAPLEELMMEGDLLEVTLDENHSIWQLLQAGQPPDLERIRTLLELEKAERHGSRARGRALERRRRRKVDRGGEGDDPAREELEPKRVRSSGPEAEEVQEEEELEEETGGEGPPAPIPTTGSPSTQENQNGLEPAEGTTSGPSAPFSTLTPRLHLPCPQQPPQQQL

On to `CCCCN(CCCC)CCN(CC)C(=O)CNCc1cc(C(=O)O)ccn1`, for which, in data set [1], the inhibition activity call was “Active”.

What is called Papp is the rate of passage across a membrane or cell layer, normalised by area and donor concentration. Regarding `CC(C)NCC(O)COc1cccc2ccccc12` (stereo not given) [PROPRANOLOL], the Papp at 4 h, 100 µM in [2] turned out to be 39 nm/s.

The IC50 is the concentration that inhibits the measured activity by half. A low value points to inhibition by little substance. Regarding `CCN(CCN(C)C(C)C)C(=O)CNCc1cc(C(=O)O)ccn1`, the inhibition activity call in [1] is “Active”. Half-maximal inhibition in data set [3] (IC50) was put at 3.05 nM.

`CCN(C)CCN(CC)C(=O)CNCc1cc(C(=O)O)ccn1`: the inhibition activity call in [1] was “Active”. This compound also gave a half-inhibitory concentration (IC50) in data set [3] of 6.94 nM.

As a reminder, the logD is the decadic logarithm of the distribution of all forms, ionised or not, between an organic phase and buffer at a given pH. Higher therefore signals a more lipophilic compound. As to `CCOC(=O)c1ccnc(CNCC(=O)N(CC)CCN(C)C)c1`, the half-maximal inhibitory concentration (IC50) in data set [3] stood at 207 nM. In data set [2], the Papp at 4 h, 100 µM was found to be 1 nm/s. This compound also yielded a logD at 20 min, 100 µM in data set [4] of 1.5.

With `CCCN(C)CCN(CC)C(=O)CNCc1cc(C(=O)O)ccn1`, the inhibition activity call in [1] was “Active”. The 50% inhibitory concentration (IC50) in [3] is 6.32 nM.

Regarding `CCN(CCN(C)Cc1ccccc1)C(=O)CNCc1cc(C(=O)O)ccn1`, the inhibition activity call in data set [1] was “Active”. In data set [3], this compound returned a concentration for half-maximal inhibition (IC50) of 8.42 nM.

Take `CCN(CCN(C(C)C)C(C)C)C(=O)CNCc1cc(C(=O)O)ccn1`: the inhibition activity call in data set [1] is “Active”.

For `CCN(CCN(C)C)C(=O)CNCc1cc(C(=O)O)ccn1`, the 50% inhibitory concentration (IC50) in data set [3] was 2.23 nM; in [5], 1.42 nM; in data set [6] it was 9.92 nM; in data set [7] it was more than 50000 nM; in data set [8] it was 172 nM; in data set [9], more than 5000 nM.

For `CCCN(CCC)CCN(CC)C(=O)CNCc1cc(C(=O)O)ccn1`, the inhibition activity call in [1] is “Active”.

Turning to `CCCCN(C)CCN(CC)C(=O)CNCc1cc(C(=O)OCC)ccn1`, the apparent permeability coefficient (Papp) at 4 h, 100 µM in data set [2] is 6 nm/s. Also, the logD at 20 min, 100 µM in data set [4] came out at 2.2. In addition, the results for the inhibition result in the data set on A549 [10] and with A549 [12] were “Tde” and “Dose-Dependent Effect”, respectively. In addition, in the data set on A549 [11], the inhibition result was “Active”. Also, the inhibition entry with A549 [13] and in the data set on A549 [14] was “inactive” in each case.

On to `CCN(CC)CCN(CC)C(=O)CNCc1cc(C(=O)O)ccn1`, for which the inhibition activity call in data set [1] was “Active”.

For `CCCCN(C)CCN(CC)C(=O)CNCc1cc(C(=O)O)ccn1`, the 50% inhibitory concentration (IC50) in data set [5] was 1.22 nM; in data set [6], 13.6 nM; in data set [7] it was more than 50000 nM; in data set [8] it was 389 nM; in [9], more than 5000 nM.

As to `CCN(CCN(Cc1ccccc1)Cc1ccccc1)C(=O)CNCc1cc(C(=O)O)ccn1`, in data set [1], the inhibition activity call is “Active”.

The values are drawn from ChEMBL document CHEMBL5550083, “Structural optimization of a lysine demethylase 5 inhibitor for improvement of its cellular activity” (Bioorg Med Chem, 2024).
